The Kinase Knowledgebase extract (Sharma et al. 2016)

Target: MAPK14 (human) (UniProt Q16539)
Test: Inhibition of MAPK14 Kinase Activity

Chain of MAPK14 (human) (Q16539 whole entry, looked up): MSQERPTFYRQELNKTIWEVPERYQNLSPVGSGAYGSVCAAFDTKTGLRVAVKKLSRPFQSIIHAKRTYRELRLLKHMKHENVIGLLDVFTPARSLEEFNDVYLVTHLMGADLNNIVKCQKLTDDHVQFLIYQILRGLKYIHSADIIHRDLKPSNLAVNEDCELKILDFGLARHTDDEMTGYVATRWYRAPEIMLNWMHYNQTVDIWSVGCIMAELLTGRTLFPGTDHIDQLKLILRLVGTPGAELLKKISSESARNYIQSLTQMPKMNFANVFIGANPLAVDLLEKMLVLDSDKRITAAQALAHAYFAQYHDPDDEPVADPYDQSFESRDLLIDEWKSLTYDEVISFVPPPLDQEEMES

Row | Compound | IC50 [nM]
1 | COc1cccc(C(=O)c2c(N)sc3c2ccc(=O)n3-c2ccccc2)c1 | < 2000
2 | Cc1cccc(C(=O)c2c(NC(=O)N3CCN(C)CC3)sc3c2ccc(=O)n3-c2ccccc2)c1 | < 2000
3 | CN(C)C(=O)CNc1sc2c(ccc(=O)n2-c2ccccc2)c1C(=O)c1ccccc1 | < 2000
4 | O=C(c1ccccc1)c1c(N[C@@H]2CCNC2)sc2c1ccc(=O)n2-c1ccccc1 | < 2000
5 | CN(C)[C@H]1CCN(c2sc3c(ccc(=O)n3-c3ccccc3)c2C(=O)c2ccccc2)C1 | < 2000
6 | CC(C)(CO)NC(=O)Nc1sc2c(ccc(=O)n2-c2ccccc2Cl)c1C(=O)c1ccccc1 | < 2000
7 | CC(C)(CO)NC(=O)Nc1sc2c(ccc(=O)n2CC2CC2)c1C(=O)c1ccccc1 | < 2000
8 | N#Cc1ccccc1C(=O)c1c(N)sc2c1ccc(=O)n2-c1ccccc1 | < 2000
9 | Cc1cc(C(=O)c2c(NC3CNC3)sc3c2ccc(=O)n3-c2ccccc2)ccc1F | < 2000
10 | Cc1cc(C(=O)c2c(NC(=O)C3CCN(C)CC3)sc3c2ccc(=O)n3-c2ccccc2F)ccc1F | < 2000
11 | CNC(=O)CNc1sc2c(ccc(=O)n2-c2ccccc2)c1C(=O)c1ccccc1 | < 2000
12 | CC(=O)Nc1sc2c(ccc(=O)n2-c2ccccc2)c1C(=O)c1ccccc1Cl | < 2000
13 | Cc1cccc(C(=O)c2c(C(N)=O)sc3c2ccc(=O)n3-c2ccccc2)c1 | < 2000
14 | CC(=O)Nc1sc2c(ccc(=O)n2-c2ccccc2)c1C(=O)c1ccccc1 | < 2000
15 | COc1cccc(C(=O)c2c(NC3CCN(C)CC3)sc3c2ccc(=O)n3-c2ccccc2)c1 | < 2000
16 | Cc1cccc(C(=O)c2c(NC3CN(C)C3)sc3c2ccc(=O)n3-c2ccccc2)c1 | < 2000
17 | CN1CC[C@@H](Nc2sc3c(ccc(=O)n3-c3ccccc3)c2C(=O)c2ccccc2)C1 | < 2000
18 | O=C(c1ccccc1)c1c(N2CC[C@@H](O)C2)sc2c1ccc(=O)n2-c1ccccc1 | < 2000
19 | CC(C)(C)OC(=O)Nc1sc2c(ccc(=O)n2-c2ccccc2)c1C(=O)c1ccccc1 | < 2000

Other lines, results leading:

Row | IC50 [nM] | Compound
20 | < 2000 | O=C(c1ccccc1)c1c(N[C@H]2CCCNC2)sc2c1ccc(=O)n2-c1ccccc1
21 | < 2000 | CC(=O)Nc1sc2c(ccc(=O)n2-c2ccccc2)c1C(=O)c1cccc(Cl)c1
22 | < 2000 | N[C@@H]1CCN(C(=O)Nc2sc3c(ccc(=O)n3-c3ccccc3)c2C(=O)c2ccccc2)C1
23 | < 2000 | CC(=O)Nc1sc2c(ccc(=O)n2CC2CC2)c1C(=O)c1ccc(F)c(C)c1
24 | < 2000 | Cc1cccc(C(=O)c2c(NC3CNC3)sc3c2ccc(=O)n3-c2ccccc2)c1
25 | < 2000 | CC(=O)Nc1sc2c(ccc(=O)n2CC2CC2)c1C(=O)c1ccccc1
26 | < 2000 | CNC(=O)c1sc2c(ccc(=O)n2-c2ccccc2)c1C(=O)c1ccccc1
27 | < 2000 | CCOC(=O)c1sc2c(ccc(=O)n2-c2ccccc2)c1C(=O)c1ccccc1
28 | < 2000 | NC(=O)c1sc2c(ccc(=O)n2-c2ccccc2)c1C(=O)c1ccccc1
29 | < 2000 | Nc1sc2c(ccc(=O)n2-c2ccccc2F)c1C(=O)c1ccccc1
30 | < 2000 | Nc1sc2c(ccc(=O)n2-c2ccccc2)c1C(=O)c1ccccc1Cl
31 | < 2000 | CN1CC(Nc2sc3c(ccc(=O)n3-c3c(F)cccc3F)c2C(=O)c2ccccc2)C1
32 | < 2000 | O=C(c1ccccc1)c1c(C(=O)N2CCOCC2)sc2c1ccc(=O)n2-c1ccccc1
33 | < 2000 | O=C(c1ccccc1)c1c(C(=O)N2CCC2)sc2c1ccc(=O)n2-c1ccccc1
34 | < 2000 | Cc1cc(C(=O)c2c(N)sc3c2ccc(=O)n3-c2ccccc2)ccc1F
35 | < 2000 | Cc1cccc(C(=O)c2csc3c2ccc(=O)n3-c2ccccc2)c1
36 | < 2000 | O=C(c1ccccc1)c1c(NC(=O)C2CCNCC2)sc2c1ccc(=O)n2-c1ccccc1Cl
37 | < 2000 | C[C@@H](Nc1sc2c(ccc(=O)n2-c2ccccc2)c1C(=O)c1ccccc1)C(N)=O
38 | < 2000 | Cc1cccc(C(=O)c2c(N[C@H]3CCNC3)sc3c2ccc(=O)n3-c2ccccc2)c1
39 | < 2000 | CCN1CC[C@@H](NC(=O)Nc2sc3c(ccc(=O)n3-c3ccccc3)c2C(=O)c2ccc(F)c(C)c2)C1
40 | < 2000 | CN1CCC[C@@H]1C(=O)Nc1sc2c(ccc(=O)n2-c2ccccc2)c1C(=O)c1ccccc1
41 | < 2000 | CCOC(=O)c1sc2c(ccc(=O)n2CC2CC2)c1C(=O)c1ccccc1
42 | < 2000 | O=C(Nc1sc2c(ccc(=O)n2-c2ccccc2)c1C(=O)c1ccccc1)N[C@H]1CCNC1
43 | < 2000 | Cc1cc(C(=O)c2c(N)sc3c2ccc(=O)n3-c2ccccc2Cl)ccc1F
44 | < 2000 | CCOC(=O)c1sc2c(ccc(=O)n2-c2ccccc2)c1C(=O)c1cccc(Cl)c1
45 | < 2000 | CC(=O)Nc1sc2c(ccc(=O)n2-c2ccccc2)c1C(=O)c1ccccc1F
